Assay results published in publication PMC9213526, “Glycoside hydrolase from the GH76 family indicates that marine Salegentibacter sp. Hel_I_6 consumes alpha-mannan from fungi” (The ISME Journal, 2022).

Assays:
ShGH76 [1] = molecular target: T1, ShGH76 (Salegentibacter sp. Hel_I_6, UniProt A0ACD6BAU6, D116N/D117N, form not given); test: X-ray crystallography of the complex, […] Å; assay type: binding; conditions: inactive double mutant ShGH76^Asn; co-crystallised at pH 4.6 with 140 mM calcium chloride; active site
T1 construct: gene GH76A; synthetic gene in pET28a(+) (NheI/XhoI), N-terminal 6xHis tag, E. coli BL21(DE3); modelled residues Asp54-Glu391

ShGH76 [2] = molecular target: T2, ShGH76 (Salegentibacter sp. Hel_I_6, UniProt A0ACD6BAU6); test: HPAEC-PAD product analysis; assay type: biochemical
T2 construct: gene GH76A; synthetic gene in pET28a(+) (NheI/XhoI), N-terminal 6xHis tag, E. coli BL21(DE3); modelled residues Asp54-Glu391

ShGH76 [3] = molecular target: T3, ShGH76 (Salegentibacter sp. Hel_I_6, UniProt A0ACD6BAU6, D116A/D117A, form not given); test: X-ray crystallography of the complex, […] Å; assay type: binding; conditions: inactive double mutant ShGH76^Ala; co-crystallised in 1.6 M tri-sodium citrate; active site
T3 construct: gene GH76A; synthetic gene in pET28a(+) (NheI/XhoI), N-terminal 6xHis tag, E. coli BL21(DE3); modelled residues Asp54-Glu391

## OC[C@H]1O[C@H](OC[C@H]2O[C@H](OC[C@H]3OC(O)[C@@H](O)[C@@H](O)[C@@H]3O)[C@@H](O)[C@@H](O)[C@@H]2O)[C@@H](O)[C@@H](O)[C@@H]1O (stereo partly drawn) [Man3, α-1,6-mannotriose]
ShGH76 [1]
  X-ray crystallography of the complex, 1.47 Å: crystal structures of ShGH76^WT (apo-form), ShGH76^Asn (with Man3) and ShGH76^Ala (with Man4)

## OC[C@H]1O[C@H](OC[C@H]2O[C@H](OC[C@H]3O[C@H](OC[C@H]4O[C@H](OC[C@H]5O[C@H](OC[C@H]6O[C@H](OC[C@H]7OC(O)[C@@H](O)[C@@H](O)[C@@H]7O)[C@@H](O)[C@@H](O)[C@@H]6O)[C@@H](O)[C@@H](O)[C@@H]5O)[C@@H](O)[C@@H](O)[C@@H]4O)[C@@H](O)[C@@H](O)[C@@H]3O)[C@@H](O)[C@@H](O)[C@@H]2O)[C@@H](O)[C@@H](O)[C@@H]1O (stereo partly drawn) [Man7, mannoheptose]
ShGH76 [2]
  HPAEC-PAD product analysis: As is exemplarily shown for Man7 (Fig. 5D), ShGH76^WT hydrolyzed α-1,6-mannooligosaccharides almost completely

## OC[C@H]1O[C@H](OC[C@H]2O[C@H](OC[C@H]3O[C@H](OC[C@H]4OC(O)[C@@H](O)[C@@H](O)[C@@H]4O)[C@@H](O)[C@@H](O)[C@@H]3O)[C@@H](O)[C@@H](O)[C@@H]2O)[C@@H](O)[C@@H](O)[C@@H]1O (stereo partly drawn) [Man4, α-1,6-mannotetrose]
ShGH76 [3]
  X-ray crystallography of the complex, 1.90 Å: crystal structures of ShGH76^WT (apo-form), ShGH76^Asn (with Man3) and ShGH76^Ala (with Man4)
